Laboratory results reported in PMC12662248 (ADMET & DMPK, 2025).
“Also recorded” adds a separate entry of the source. Like-named read-outs stand apart in the source and are kept apart here.

Key:
[1] = test system: plateable monkey hepatocytes; experiment: Metabolite identification in plateable monkey hepatocytes; assay type: in vitro ADME; conditions: 10 μM metoprolol, 72 hours
Protocol: (§1) Cryopreserved rat, dog, monkey and human hepatocytes were thawed by immersing vials in a pre-warmed 37 °C water bath. The cell pellets were then transferred to thawing medium and centrifuged to isolate viable cells. Then, hepatocytes were diluted to 0.7 million cells mL^-1 and seeded into collagen-coated 48-well plates (0.2 mL per well) in duplicate. After 6 hours of attachment, the plating medium was replaced with incubation medium containing 1 % Matrigel™. […] Reactions were quenched at 72 hours with cold acetonitrile containing 0.1 % formic acid, and supernatants were dried under nitrogen gas. The residues were reconstituted in acetonitrile/water (1:9 volume ratio) with 0.1 % formic acid and analysed LC-HRMS. The M7 metabolite was isolated, purified, and concentrated via a mass spectrometry switching valve, followed by sample reconstitution, and subsequent analysis on LC-HRMS.
(§2) The maximum injection time was limited to 50 ms.
(§3) Hepatocyte viability data was expressed as mean±SD.

[2] = target: T1, recombinant 2D6 enzymes (Homo sapiens, UniProt P10635); conditions: 60 min, 1 μM
T1 sequence (P10635 whole entry): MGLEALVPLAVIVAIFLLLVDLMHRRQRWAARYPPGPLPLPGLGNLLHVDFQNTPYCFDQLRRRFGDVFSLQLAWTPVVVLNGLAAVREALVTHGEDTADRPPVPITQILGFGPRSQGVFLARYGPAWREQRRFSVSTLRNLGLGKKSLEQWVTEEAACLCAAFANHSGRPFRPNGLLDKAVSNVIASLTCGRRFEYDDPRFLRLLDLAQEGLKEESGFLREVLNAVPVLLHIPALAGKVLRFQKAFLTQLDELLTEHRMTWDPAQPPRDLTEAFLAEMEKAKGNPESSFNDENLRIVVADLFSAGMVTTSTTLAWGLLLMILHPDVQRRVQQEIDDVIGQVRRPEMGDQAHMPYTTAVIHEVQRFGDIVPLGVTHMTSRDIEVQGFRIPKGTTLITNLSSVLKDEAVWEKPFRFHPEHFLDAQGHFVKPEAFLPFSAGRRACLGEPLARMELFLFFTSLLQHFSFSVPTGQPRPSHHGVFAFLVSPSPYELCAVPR
Protocol: (§5) Human recombinant cytochrome 2D6 enzymes were diluted to 50 pmol mL^-1 in 50 mM phosphate buffer. […] Reactions were initiated by adding NADPH (final concentration: 1 mM), and aliquots were collected at 60 min. Samples were quenched with cold acetonitrile containing 0.1 % formic acid, centrifuged (12,000g, 15 min, 4 °C), then supernatants were dried, reconstituted, centrifuged (12,000g, 15 min, 4 °C), and subjected to an analysis on LC-HRMS..
(§6) Qualitative LC-HRMS analysis was conducted using an Ultimate 3000 pump (ThermoFisher, Germany) and a Q-Exactive Plus spectrometer. The mobile phase A was distilled water containing 0.1 % formic acid and the mobile phase B was acetonitrile containing 0.1 % formic acid. The liquid chromatography (LC) gradient spanned 22 min: 0 to 1.0 minute at 5 % B; 1.0 to 6.0 min, 5 to 15 % B; 6.0 to 14.0 mi, 15 to 25 % B; 14.0 to 16.0 min, 25 to 90 % B; 16.0 to 18.0 min, 90 to 95 % B; 18.0 to 20.0 min, 95 to 5 % B; and 20.0 to 22.0 min at 5 % B (flow rate: 0.3 mL min^-1). MS parameters included: spray voltage: 3.8 kV, capillary temperature: 320 °C, heater temperatures: 350 °C, sheath gas: 2.76 MPa, auxiliary nitrogen pressures: 0.7 MPa and tube lens voltage: 10 eV. The full scan Q1 resolution was set to 70,000, and the automatic gain control (AGC) target value was set to 5×10^5 intensity. The maximum injection time was limited to 50 ms. The dd-MS^2 resolution was set at 17,500, with the AGC target set at 5×10^4. External calibration was performed, yielding a deviation of less than 5.0 ppm. Data was processed using Xcalibur 4.1.31.9 software (ThermoFisher, Germany; https://www.thermofisher.com/order/catalog/product/OPTON-30965).
(§7) LC-HRMS raw data was extracted with Xcalibur, and metabolites were identified using Compound Discoverer 3.0 (ThermoFisher, Germany; https://www.thermofisher.com/order/catalog/product/OPTON-31061) by comparing fragment patterns between parent compounds, metabolites, and standards.

[3] = test system: plateable dog hepatocytes; experiment: Metabolite identification in plateable dog hepatocytes; assay type: in vitro ADME; conditions: 10 μM metoprolol, 72 hours
Protocol: as §1, §2, §3

[4] = test system: plateable rat hepatocytes; experiment: Metabolite identification in plateable rat hepatocytes; assay type: in vitro ADME; conditions: 10 μM metoprolol, 72 hours
Protocol: as §1, §2, §3

[5] = test system: plateable human hepatocytes; experiment: Metabolite identification in plateable human hepatocytes; assay type: in vitro ADME; conditions: 10 μM metoprolol, 72 hours
Protocol: as §1, §2, §3

[6] = target: T1, recombinant 2D6 enzymes; experiment: Metabolite identification in recombinant cytochrome 2D6 enzymes; conditions: human recombinant 2D6 enzymes, 1 μM metoprolol, 60 min
Protocol: as §5, §6, §7

[7] = test system: plateable human hepatocytes; conditions: cited from earlier work
[8] = test system: plateable human hepatocytes; experiment: Plateable hepatocytes stability (metoprolol depletion); assay type: in vitro ADME
Protocol: Cryopreserved human hepatocytes were thawed by immersing vials in a pre-warmed 37 °C water bath. The cell pellets were then transferred to thawing medium and centrifuged to isolate viable cells. […] Aliquots were collected at 0, 2, 4, 8, 24, 48 and 72 hours, and reactions were quenched with cold acetonitrile/methanol (1:1, v/v) containing labetalol (100 ng mL^-1). After centrifugation (12,000g, 15 min, 4 °C), supernatants were analysed via LC-30AD-API5500 (LC-MS/MS, SCIEX, USA) for semiquantitative assessment. […] Hepatocyte viability data was expressed as mean±SD.

[9] = test system: plateable rat hepatocytes; experiment: Plateable hepatocytes cytotoxicity (CellTiter-Glo ATP assay), rat; assay type: cell-based; conditions: 48 hours; for cytotoxicity in rat hepatocytes (words): 0 to 500 μM
Protocol: (§4) Cryopreserved plateable rat and human hepatocytes were thawed by immersing vials in a pre-warmed 37 °C water bath. The cell pellets were then transferred to thawing medium and centrifuged to isolate viable cells. […] Prior to the measurement, the cell culture plate was equilibrated to ambient temperature. Subsequently, 100 μL of CellTiter-Glo® reagent was dispensed into each well, followed by orbital shaking (5 min) to ensure complete cell lysis. After a 10-minute stabilization at room temperature, luminescence signals were quantified using an envision® multilabel plate reader.

[10] = test system: plateable human hepatocytes; experiment: Plateable hepatocytes cytotoxicity (CellTiter-Glo ATP assay), human; assay type: cell-based; conditions: 0 to 500 μM, 48 hours, regardless of ABT co-treatment
Protocol: as §4

Structure (SMILES)	Relative peak area, plateable hepatocytes, Mk [1] [%]	Relative peak area, 2D6, H [2] [%]	Relative peak area, plateable hepatocytes, D [3] [%]	Relative peak area, plateable hepatocytes, R [4] [%]	Relative peak area, plateable hepatocytes, H [5] [%]	further results
NCC(O)COc1ccc(CCO)cc1 (centres unmarked) [M3]	0.1	1.6	0.7	–	–	–
CC(C)NCC(O)COc1ccc(C(=O)O)cc1 (centres unmarked) [M9]	0.2	1.7	–	0.4	–	–
COCC(O)c1ccc(OCC(O)CNC(C)C)cc1 (stereo not drawn) [M10, α-hydroxy-metoprolol]	5.6	20.1	9.4	24.4	2.7	–
CC(C)NCC(O)COc1ccc(CCO)cc1 (centres unmarked) [M13, O-desmethyl-metoprolol]	0.1	22.8	20.5	3.8	6.0	–
CC(C)NCC(O)COc1ccc(CC(=O)O)cc1 (centres unmarked) [M17, metoprolol acid]	82.6	–	19.9	57.2	14.6	Relative peak area, 2D6, H [6]: 18.3%
COCCc1ccc(OCC(O)CN)cc1 (centres unmarked) [M18]	–	6.4	5.8	0.1	–	–
COCCc1ccc(OCC(O)CNC(C)C)cc1 (centres unmarked) [metoprolol, Metoprolol]	–	–	–	–	–	in vivo clearance ([7]; correlating with plateable human hepatocyte clearance): 1.4 mL/min/kg; clearance in hepatocytes ([7]; previously reported): 4.28 μL min^-1 per million cells; clearance in plateable human hepatocytes ([7]; previously reported): 2.2 ± 0.7 μL min^-1 per million cells; in vivo CLint ([8]; extrapolated from plateable human hepatocyte CLint): 1.59 ± 0.31 mL/min/kg; in vitro intrinsic clearance (CLint) ([8]; plateable human hepatocytes, 1 μM, 72-hour incubation): 0.56±0.12 μL min^-1 per million cells; cytotoxicity in rat hepatocytes (words) ([9]; without ABT): weak cytotoxicity; also recorded: weak hepatotoxicity; cytotoxicity in rat hepatocytes (words) ([9]; without ABT, listed as Metoprolol): cytotoxic only at a concentration of 500 μM; effect of ABT pre-treatment on metoprolol cytotoxicity ([9]; rat hepatocytes, 500 μM metoprolol with 50 μM ABT): reversed the cytotoxic effect; reductions in cell viability ([9]; rat hepatocytes, 500 μM metoprolol, without ABT): > 30%; cytotoxicity in human hepatocytes (words) [10]: No significant reduction in cell viability; also recorded: no significant hepatotoxicity; cytotoxicity in human hepatocytes (words) ([10]; listed as Metoprolol): no observable cytotoxicity
